Source: patent publication US7871978B2, “Bone tropic peptides” (University of Virginia Patent Foundation, priority 2004, dated 2011)

How the values were obtained:
[1] = tested on: prostate cancer cells; assay: Chimeric tumors of killer-gene mesenchymal cells and prostate cancer cells treated with prodrug; format: in vivo, immune deficient rats
Method: Further experiments were carried out exploiting the phenomenon of mesenchymal cell homing to skeletal tissues. Cells transduced with thymidine kinase or cytidine deaminase, killer genes that can be expressed under the influence of a prodrug, lead to a cell kill effect on neighboring prostate cancer cells in a co-culture system in vitro. In vivo, the mesenchymal cells and prostate cancer cells were co-injected into subcutaneous sites in immune deficient rats. […] Therefore, a cell-based gene delivery system may be useful to pursue as potential therapy for metastatic cancer, particularly prostate cancer cells that have spread to bone.

[2] = tested on: Unicortical femoral defects; assay: Peptide-mediated osteogenesis in cortical bone defects (Example 8); format: in vivo, Fisher 344 rats; conditions: 100 mM peptide in gelfoam, two weeks postoperatively; for Effectiveness at stimulating osteogenesis and cortical bone repair: versus gelfoam+PBS
Method: In an in vivo study, all 13 peptides at a concentration of 100 mM were tested for their ability to potentiate osteogenesis. A gelfoam cylinder 1.5 mm in diameter 2 mm in length was used as carrier for the peptides. Unicortical femoral defects 1.5 mm in diameter were created bilaterally in Fisher 344 rats; the left femoral defect was filled with gelfoam+PBS (Control), and the right femur with gelfoam+peptide. The samples were harvested and examined two weeks postoperatively. To examine the effect of peptide concentration on cortical bone regeneration, peptide L7 (SEQ ID NO:5) was used at 1, 5, and 20 mM. […] The time course of cortical bone repair with 20 mM L7 was examined at 5, 10, 15, and 20 days.

[3] = tested on: bovine aortic endothelial cells; assay: Effect of peptides on adherent bovine aortic endothelial cells on fibronectin or collagen; format: cell-based; conditions: for Effect on adherent BAEC (Experiment 1): 0.1M biotinylated peptide, 1 hour, cells adhered four hours on fibronectin or collagen
Method: Peptides from the phage display project were added to bovine aortic endothelial cells in culture. The endothelial cells had adhered to a surface coated with collagen or with fibronectin.
Experiment 1: Bovine aortic endothelial cells were plated on glass slides that were coated either fibronectin or collagen. The cell density was 5,000 cells/well. After the cells adhered for four hours, 0.1M of biotinylated peptide was added to each well. The following peptides were used: L1, L2, L5, L6, L7, L12, L13, L14, L19, R1, R3, and R8.
To perform this experiment, the media was removed and the cells were rinsed with 1×PBS plus 1% BSA three times. Peptides were diluted in 1×PBS plus 1% BSA, added to cells and incubated for 1 hour. The cells were rinsed three times with 1% BSA in PBS, and fixed with 2% parafomaldehyde. Aldehyde groups were blocked with 0.2 M HCl-glycine in PBS, the cells were rinsed three times with 1% BSA in PBS and ExtrAvidin-FITC (1:200 dilution) was added and incubated overnight at 4° C. The cells were rinsed three times with 1% BSA in PBS. The chambers and the gasket were removed from each slide, Vectashield was added, covered and viewed on a Nikon microscope. Images were acquired using a Coolsnap digital camera and Metavue software. […]
Experiment 3: The cells were adherent for about 6 hours and peptides at various concentrations were added to the cells. The concentrations of each of the peptides used in this experiment were: 0.1M, 0.01M, 0.001M and 0.0001M biotinylated peptide. The following peptides were tested: L1, L5, L6, L7, L13, L14, R1, R3, R8, DIP1 and PBS control (SEQ ID NOs:1, 3, 4, 5, 8, 9, 11, 13, 14, and 29).

[4] = tested on: bone and bone marrow; assay: In vivo biopanning with 12-mer peptide phage display library; parameters: species or system BALB/c mice; conditions: for PERCENT FREQUENCY: phage eluted from bone and bone marrow; for PHAGE SEQUENCE FREQUENCY (number of times the sequence was found in a group of plaques): phage eluted from bone and bone marrow after repeated rounds
Description: The Ph.D.-12 Phage Display Peptide Library Kit (New England Biolabs, Beverly, Mass.) used in this study is based on a combinatorial library of random peptide 12-mers fused to a minor coat protein (pIII). […] The peptide is followed by a short spacer of four amino acid residues, the first three residues of which are glycine and the fourth of which is serine, and then the wild-type III sequence. The library consists of approximately 2.7×10^9 electroporated sequences, amplified once to yield approximately 55 copies of each sequence.
For in vivo biopanning, BALB/c mice 8 weeks of age were injected 3.4×10^10 pfu of phage into the heart. The animals were euthanized after 5 minutes, and the tissues (bone, bone marrow, kidney, liver, and spleen) were collected for analysis. The bound phage was eluted according the manufacturer's instructions. The eluted phage was titered, amplified, purified, and injected again at the same concentration.
The frequency of each peptide in bone and bone marrow was compared with its location in other tissues such as liver, kidney, lung, spleen, and brain. Thirteen unique peptide sequences eluted from bone and marrow were identified were identified by sequencing phage DNA. The peptides were synthesized using the polystyrene solid support on a Protein Technologies Symphony Multiple Channel Synthesizer.

[5] = tested on: bovine aortic endothelial cells (BAEC); assay: Peptide binding to BAEC in culture (Avidin-FITC); parameters: key: ✓: Check marks indicate positive binding observed with FITC; −: a dash indicates a negative result
Method: (§1) For localization of peptide binding to cells and tissue sections, biotinylated peptides were synthesized. Fluorescein-isothiocyanate (FITC) labeled Avidin was used to localize the peptides on cells in culture and in tissue sections in vitro by epiluminescence microscopy. In addition, the biotinylated peptides were detected at concentrations as low as 1 μM in slot blots.
(§2) Bone marrow cells isolated from mouse femur were lifted with ethylenediaminetetraacetic acid (EDTA) and trypsin, resuspended, and allowed to attach on fibronectin-coated chamber slides for Avidin-FITC staining. […] The D1 cell is a multipotential mesenchymal stem-like line that was isolated from bone marrow and shown to have the characteristics of osteoprogenitor cells. This cell line has been well established and used successfully in several in vitro and in vivo studies in our laboratory. Peptide binding to human bone marrow endothelial cells (HBME) and bovine aortic endothelial cells (BAEC) in culture was also tested using the same procedure.

[6] = tested on: Membrane and cytosol fractions from human bone marrow endothelial cells; assay: Affinity chromatography of HBME fractions on immobilized peptide; format: binding; parameters: key to Identification of binding partners by affinity chromatography: HBME: ✓: Check marks indicate positive binding observed with FITC; −: a dash indicates a negative result; conditions: cell lysates
Method: (§3) Membrane and cytosol fractions from human bone marrow endothelial cells and bovine aortic endothelial cells were prepared and used to identify the components from within these fractions that bind to the peptides using affinity chromatography). […] Cell surface nucleolin is present at higher concentrations in actively dividing cells and is down regulated in cells when they become quiescent. Nucleolin is the apparent cell surface receptor of E-coli intimin-gamma. Cell bound intimin has been proposed to trigger a host cell response similar to the extension of filipodia when cells bind to laminin. […] Table 3 provides a summary of peptide-binding partners (putative receptors) identified by affinity chromatography of cell lysates.
Peptide Affinity Column Chromatography: Peptides identified from the phage display experiments in mouse bone and bone marrow were synthesized with an additional three-residue glycine linker and an N-terminal lysine residue. The lysine residue was used to specifically link the peptides to a support. Cell membranes from BMECs were solubilized with triton X-100. The solubilized proteins were passed through the peptide affinity column (total volume, 500 μL) followed by extensive washes with buffer. Retained proteins were eluted either with 100 mM solution of the same peptide as that immobilized on the column or with a wash of 0.1 N HCl-Glycine, pH 2.2. The eluates were analyzed by SDS PAGE and proteins observed in the gels were identified by LC/MS/MS.

[7] = tested on: Membrane and cytosol fractions from bovine aortic endothelial cells; assay: Affinity chromatography of BAEC fractions on immobilized peptide; format: binding
Method: as §3

[8] = tested on: Bone marrow cells isolated from mouse femur; assay: Peptide binding to bone marrow cells in culture (Avidin-FITC); parameters: key to Localization of peptide binding: Marrow (cells in culture): ✓: Check marks indicate positive binding observed with FITC; −: a dash indicates a negative result; conditions: FITC
Method: as §1, §2

[9] = tested on: bone and marrow tissue sections (mouse femur, rib); assay: Biotinylated peptide binding to bone/marrow tissue sections, Avidin-FITC fluorescence
Method: Methods: Four-week old Swiss Webster mice were euthanized; the femurs were excised and decalcified in 0.25M EDTA in PBS solution for 5 days, and washed in PBS for 24 hours. The femoral shafts were obtained by cutting off the proximal and distal ends of the femur. The femoral shafts were placed in Tissue-Tek O.C.T. Compound (Sukura Finetek, Torrance, Calif.) and frozen at −20° C. overnight. Sections were cut at 10 μm serially with a cryomicrotome, rinsed with 1% BSA in PBS three times. To block non-specific reaction sections were incubated with Avidin/Biotin Blocking Kit (Vector Laboratories, Inc. Burlingame, Calif.) according to the manufacturer's instructions. Following another rinse with PBS, 150 μl 10 mM solution of each biotinylated peptide (L1, L2, L7, R1, R8) was added to the slides and incubated for 1 hour at room temperature. In negative controls, only PBS was added. After rewashes with 1% BSA, 150 μl of 1:50,000 dilution of Avidin-FITC was added to each slide and incubated overnight at 4° C.
The sections were washed with 1% BSA in PBS and mounted with Vectashield (Vector Laboratories Inc., Burlingame, Calif.). Fluorescence was visualized using a Nikon eclipse E600 microscope (Nikon, Melville, N.Y.) equipped with a 535 nm wavelength fluorescein filter. Images were obtained using a Sony DKC-5000 digital camera (Sony Electronics Inc.) and processed with Adobe Photoshop software (Adobe Systems Incorporated, San Jose, Calif.).
as §1
Cryosections of decalcified femurs harvested from 4 week BALB/c mice were incubated with biotinylated peptide and Avidin-FITC. […] The distribution of fluorescence throughout the marrow was uneven. […] In control slides incubated with PBS without peptide, none of the cells could be detected by fluorescence (not shown). […]

[10] = BALB/c mouse decalcified femur cryosections, biotinylated peptide and Avidin-FITC
[11] = BALB/c mouse femur cryosections, biotinylated peptide
[12] = Swiss Webster mouse decalcified femur cryosections, 10 mM biotinylated peptide, 1 hour, Avidin-FITC
[13] = Swiss Webster mouse femur cryosections, 10 mM biotinylated peptide

Row | Compound | Size of chimeric tumors ([1]; mesenchymal cells and prostate cancer cells co-injected subcutaneously, prodrug treatment) | Serum PSA levels ([1]; treated rats) | Effectiveness at stimulating osteogenesis and cortical bone repair [2] | Effect on adherent BAEC (Experiment 1) [3] | Effect on adherent BAEC (Experiment 3) ([3]; 0.1M peptide, cells adherent about 6 hours) | PERCENT FREQUENCY [4] [%] | PHAGE SEQUENCE FREQUENCY (number of times the sequence was found in a group of plaques) [4] | Localization of peptide binding: BAEC [5] | Identification of binding partners by affinity chromatography: HBME [6] | Binding partner from BAEC lysates ([7]; biotinylated peptide immobilized on avidin-agarose) | Identification of binding partners by affinity chromatography: BAEC ([7]; cell lysates) | Localization of peptide binding: Marrow (cells in culture) [8] | Fluorescence detected in femur sections incubated with peptide [9, 10] | Cell shape preferentially recognized by peptide [9, 11] | Extent of marrow cells detected by fluorescence [9, 11] | Fluorescence detected in femur sections incubated with peptide [9, 12] | Cell shape preferentially recognized by peptide [9, 13] | Extent of marrow cells detected by fluorescence [9, 13] | Histological appearance of repair tissue in the defect [2]
1 | Nc1nc2c(ncn2COC(CO)CO)c(=O)[nH]1 [gencyclovir] | diminished in size | drop in serum PSA levels |  |  |  |  |  |  |  |  |  |  |  |  |  |  |  |  | 
2 | GLN-ARG-SER-TRP-THR-LEU-ASP-SER-ALA-LEU-SER-MET-GLY-GLY-GLY-SER (QRSWTLDSALSMGGGS; listed as Homo sapiens) [Peptide L12] |  |  | most effective at stimulating osteogenesis and cortical bone repair | the cells lifted and formed clusters that stained intensely | formed fewer clumps and considerably more debris | 16.7 | 5/30 | ✓ | − | vimentin was found to bind | ✓Vimentin | ✓ |  |  |  |  |  |  | 
3 | LEU-LEU-ALA-ASP-THR-THR-HIS-HIS-ARG-PRO-TRP-THR-GLY-GLY-GLY-SER (LLADTTHHRPWTGGGS; listed as Homo sapiens) [Peptide L2] |  |  | least effective for cortical bone repair | no effect, with results similar to PBS |  | 32.1 | 9/28 |  |  |  |  |  | Fluorescence was detected | recognized cells with mostly irregular shapes | did not detect as many cells | Fluorescence was detected | recognized cells with mostly irregular shapes | did not detect as many cells | a considerable amount of gelfoam remaining in the defects, with thinner and more loosely organized cortical bone
4 | THR-MET-ARG-ASN-PRO-ILE-THR-SER-LEU-ILE-SER-VAL-GLY-GLY-GLY-SER (TMRNPITSLISVGGGS; listed as Homo sapiens) [Peptide L1] |  |  | least effective for cortical bone repair | the cells lifted and formed clusters that stained intensely |  | 28.6 | 8/28 |  |  |  |  |  | Fluorescence was detected | recognized the round cells preferentially | did not detect as many cells | Fluorescence was detected | recognized the round cells preferentially | did not detect as many cells | a considerable amount of gelfoam remaining in the defects, with thinner and more loosely organized cortical bone
